In patent US12173018B2, “Penicillin-binding protein inhibitors” (priority 2018, dated 2024):
≈ marks a conversion by molar mass, not a printed value. Read-outs that look alike come from different tables or passages of the source.

Legend:
E. coli PBP3 = E. coli PBP3 (Escherichia coli (strain K12), UniProt P0AD68); assay: E. coli PBP3 Bocillin-FL fluorescence polarization competition binding assay
Summary of the method: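 Purified E. coli PBP (1.5 μM final) competed with inhibitor (0-1000 μM) for Bocillin-FL (0.1 μM final) in 50 mM Hepes pH 8.0, 300 mM NaCl, 5% glycerol. Fluorescence polarization (ex 490/em 520 nm) was read continuously for 60 min after Bocillin-FL addition. EC50 was the concentration that reduced Bocillin-FL binding by 50%.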

[1] = tested on: engineered strain of Escherichia coli harboring CTX-M15; assay: microbe, parasite or virus in culture; type: cell-based; conditions: Escherichia coli, read-out: Microbiological Activity (MIC in mg/L), E. coli DH5α/pLBII-CTX-M15, engineered strain producing CTX-M15
E. coli PBP2 = E. coli PBP2 (Escherichia coli (strain K12), UniProt P0AD65); assay: E. coli PBP2 Bocillin-FL fluorescence polarization competition binding assay; conditions: fluorescence polarization competition binding with Bocillin-FL; read-out: E. coli K12 PBP2 Potency (EC50)
Chain of E. coli PBP2 (P0AD65 whole entry): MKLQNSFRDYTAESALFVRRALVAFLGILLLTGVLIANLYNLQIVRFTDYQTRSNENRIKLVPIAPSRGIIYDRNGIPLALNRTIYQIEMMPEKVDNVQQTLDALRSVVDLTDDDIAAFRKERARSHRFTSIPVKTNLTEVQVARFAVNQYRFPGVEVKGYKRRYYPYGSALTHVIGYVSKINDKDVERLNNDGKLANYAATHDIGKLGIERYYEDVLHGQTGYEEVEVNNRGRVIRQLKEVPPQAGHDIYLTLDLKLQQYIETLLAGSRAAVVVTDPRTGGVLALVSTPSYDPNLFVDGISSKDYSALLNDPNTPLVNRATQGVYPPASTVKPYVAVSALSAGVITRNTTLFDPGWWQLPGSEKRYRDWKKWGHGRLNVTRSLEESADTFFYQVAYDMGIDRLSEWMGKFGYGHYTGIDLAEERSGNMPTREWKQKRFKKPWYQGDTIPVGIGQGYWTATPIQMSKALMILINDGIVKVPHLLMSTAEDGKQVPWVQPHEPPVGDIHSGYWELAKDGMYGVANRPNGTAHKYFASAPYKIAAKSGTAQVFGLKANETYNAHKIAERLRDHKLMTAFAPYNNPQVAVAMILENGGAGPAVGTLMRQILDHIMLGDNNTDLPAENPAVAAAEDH
Source text: To determine the ability of boronic acid-based test PBP inhibitors to bind Penicillin Binding Proteins (PBPs), Bocillin-FL (fluorescently-labeled penicillin V; ThermoFisher Scientific) was used in a fluorescence polarization (FP) competition binding assay to assess inhibitor binding to PBP2, PBP3 or PBP4 from Escherichia coli. PBPs were cloned and purified as described previously (King, D. T, et al., ACS Infectious Diseases 2015, 1, 175-184). To establish assay conditions for competition binding, an enzyme titration/saturation binding experiment was initially performed. Bocillin-FL was prepared at 0.2 μM in a buffer comprised of 50 mM Hepes (pH 8.0), 300 mM NaCl and 5% (v/v) glycerol. Saturation binding was performed by mixing 40 μl of PBP solutions ranging in concentrations from 0-12 μM with 40 μl of the 0.2 μM Bocillin-FL solution, in individual wells of a black 384-well microplate. FP was measured immediately upon mixing (Excitation, 490 nm; Emission, 520 nm; g-factor, 0.96), using a Cytation3 (BioTek) microplate reader and measured continuously for up to 120 minutes. […] For all PBPs the FP signal approached saturation with 1.5 μM PBP (final concentration). […] Assays (80 μl final volume) were performed with PBPs at a final concentration of 1.5 μM, Bocillin-FL at 0.1 μM and beta-lactam concentrations that ranged from 0-1000 μM. […] Bocillin-FL was added and the FP immediately measured for 60 minutes (90 minutes for PBP2). The beta-lactam potency was reported as the concentration of beta-lactam required to reduce binding of Bocillin-FL by […] (EC50). […] Binding assays for boronic acid PBP inhibitors were performed in an identical fashion.

N. gonorrhoeae FA1090 = assay: Liquid broth MIC, N. gonorrhoeae FA1090; type: cell-based; conditions: Neisseria gonorrhoeae; N. gonorrhoeae FA1090, liquid broth; read-out: Minimum Inhibitory Concentration, N. gonorrhoeae FA1090
Summary of the method: (§1)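 Broth microdilution in wild-type strains: colonies from GC agar with 1% Kellogg's supplement suspended in GC broth, inoculated at 5×10^5 CFU/mL into 2-fold compound dilutions. Plates incubated 40-42 hours at 36° C., 5% CO2; MIC read visually as lowest concentration with no growth.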

[2] = tested on: N. gonorrhoeae ATCC 49226; assay: Liquid broth MIC, N. gonorrhoeae ATCC 49226; type: cell-based; conditions: Neisseria gonorrhoeae, ATCC49226; N. gonorrhoeae ATCC 49226, liquid broth; read-out: Minimum Inhibitory Concentration, N. gonorrhoeae ATCC 49226
Summary of the method: as §1

N. gonorrhoeae FA19 = assay: Liquid broth MIC, N. gonorrhoeae FA19; type: cell-based; conditions: Neisseria gonorrhoeae; N. gonorrhoeae FA19, liquid broth; read-out: Minimum Inhibitory Concentration, N. gonorrhoeae FA19
Summary of the method: as §1

N. gonorrhoeae WHO F = assay: Liquid broth MIC, N. gonorrhoeae WHO F; type: cell-based; conditions: Neisseria gonorrhoeae; N. gonorrhoeae WHO F, liquid broth; read-out: Minimum Inhibitory Concentration, N. gonorrhoeae WHO F
Summary of the method: as §1

E. coli PBP1b = E. coli PBP1b (Escherichia coli (strain K12), UniProt P02919); assay: Radioligand competition binding assay with 14C-labeled boronic acid probe, PBP1b
Chain of E. coli PBP1b (P02919 whole entry): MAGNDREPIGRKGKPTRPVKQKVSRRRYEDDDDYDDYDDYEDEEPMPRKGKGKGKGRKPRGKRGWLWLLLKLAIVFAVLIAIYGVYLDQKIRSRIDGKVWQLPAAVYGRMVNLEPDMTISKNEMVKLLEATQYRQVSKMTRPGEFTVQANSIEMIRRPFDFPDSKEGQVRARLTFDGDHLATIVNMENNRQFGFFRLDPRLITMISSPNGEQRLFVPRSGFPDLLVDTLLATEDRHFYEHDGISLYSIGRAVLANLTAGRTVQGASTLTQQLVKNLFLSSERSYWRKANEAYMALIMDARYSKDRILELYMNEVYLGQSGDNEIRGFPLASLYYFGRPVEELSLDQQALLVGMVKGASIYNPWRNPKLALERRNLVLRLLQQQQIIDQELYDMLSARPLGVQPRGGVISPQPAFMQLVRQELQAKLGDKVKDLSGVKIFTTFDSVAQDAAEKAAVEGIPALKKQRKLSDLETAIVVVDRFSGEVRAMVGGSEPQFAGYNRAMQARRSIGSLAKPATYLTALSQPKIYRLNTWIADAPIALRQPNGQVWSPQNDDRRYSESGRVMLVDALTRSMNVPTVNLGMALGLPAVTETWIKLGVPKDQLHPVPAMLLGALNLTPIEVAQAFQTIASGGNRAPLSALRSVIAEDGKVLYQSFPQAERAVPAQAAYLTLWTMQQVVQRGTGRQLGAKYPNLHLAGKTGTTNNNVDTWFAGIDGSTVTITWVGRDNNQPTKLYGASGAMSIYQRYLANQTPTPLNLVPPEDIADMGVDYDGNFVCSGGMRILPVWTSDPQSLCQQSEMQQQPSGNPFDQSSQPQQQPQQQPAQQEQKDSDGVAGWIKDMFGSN

P. aeruginosa PAO1 = assay: Broth microdilution MIC, P. aeruginosa PAO1; type: cell-based; conditions: Pseudomonas aeruginosa; P. aeruginosa PAO1, broth microdilution; read-out: MIC P. aeruginosa PAO1
Protocol: (§2) To determine the ability of test compounds to potentiate the inhibition of the growth of bacterial strains, classic cell based broth microdilution minimum inhibitory concentration (MIC) assays were employed. MIC assays are performed according to CLSI methods except where otherwise noted (CLSI, 2011 and CLSI, 2009). The reference type strain E. coli ATCC 25922, the wild-type parent strain E. coli AG100, the hyper-permeable E. coli 901C and E. coli D22 and the E. coli AG100A strain lacking the acrAB efflux pump encoding genes were used to determine the ability of the PBP inhibitors to penetrate the outer membrane of gram-negative bacteria and inhibit bacterial growth. […] The P. aeruginosa PAO1, P. aeruginosa ATCC 27853 and A. baumannii ATCC 19606, along with the hyper-permeable P. aeruginosa ATCC 35151 and an engineered efflux pump-compromised strain of P. aeruginosa (ΔmexAB-oprM) were used to determine the ability of PBP inhibitors to penetrate the outer membrane of P. aeruginosa and A. baumannii and assess antibacterial activity against these important gram-negative organisms.
(§3) Briefly, cryo-preserved bacterial cultures of challenge strains are streaked for isolation on appropriate agar medium, in this case Mueller Hinton II agar. Following incubation to allow growth of the colonies, plates are sealed with parafilm and stored refrigerated for up to two weeks. For preparation of assay inoculum and to ensure low variability, at least 5 colonies are picked from the agar plates with an inoculating loop and aseptically transferred to a culture tube containing 3 mL of Mueller-Hinton Broth (supplemented with divalent cations to required levels based on Manufacturers' certification). The broth culture is grown for 3-5 hours at 37° C. with shaking at 200 rpm. Meanwhile, 2-fold serial dilutions of test compounds are conducted in a 96 well plate with a final volume of 75 μL per well at 2-fold the final desired concentration. After the dilution plates are set up the growing cultures are then diluted in a cuvette containing MH II broth and the optical density is measured at 600 nm. The Inoculum is diluted such that 75 μL of this culture in Mueller-Hinton Broth results in a starting bacterial concentration of 5×10^5 CFU/mL when added to the dilution plates. The plates are incubated for 16-20 hours at 37° C. The MIC values are read visually as the lowest concentration well with no bacterial growth.

P. aeruginosa ATCC 35151 = assay: microbe, parasite or virus in culture; type: cell-based; conditions: Pseudomonas aeruginosa, ATCC35151; hyper-permeable P. aeruginosa ATCC 35151; read-out: MIC P. aeruginosa ATCC 35151
Summary of the method: (§4)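 Broth microdilution MICs followed CLSI methods in cation-supplemented Mueller-Hinton broth, with 2-fold serial compound dilutions. Log-phase cultures grown 3–5 h were added to a starting inoculum of 5×10^5 CFU/mL and incubated 16–20 h at 37 °C. The MIC was read visually as the lowest concentration with no growth.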

[3] = tested on: P. aeruginosa (ΔmexAB-oprM); assay: microbe, parasite or virus in culture; type: cell-based; conditions: Pseudomonas aeruginosa, read-out: MIC P. aeruginosa ΔmexAB-OprM
Summary of the method: as §4

A. baumannii ATCC 19606 = assay: Broth microdilution MIC, A. baumannii ATCC 19606; type: cell-based; conditions: Acinetobacter baumannii, ATCC19606; A. baumannii ATCC 19606, broth microdilution; read-out: MIC A. baumannii ATCC 19606
Protocol: as §2, §3

K. pneumoniae SI-117 = assay: microbe, parasite or virus in culture; type: cell-based; conditions: Klebsiella pneumoniae, SI117, read-out: MIC K. pneumoniae SI-117
Summary of the method: as §4

K. pneumoniae UMM = assay: microbe, parasite or virus in culture; type: cell-based; conditions: Klebsiella pneumoniae; K. pneumoniae UMM producing SHV-5 and KPC-2; read-out: MIC K. pneumoniae UMM
Summary of the method: as §4

E. coli D22 = assay: microbe, parasite or virus in culture; type: cell-based; conditions: Escherichia coli; hyper-permeable E. coli D22, broth microdilution; read-out: MIC E. coli D22
Summary of the method: as §4

E. coli 901C = assay: microbe, parasite or virus in culture; type: cell-based; conditions: Escherichia coli; hyper-permeable E. coli 901C, broth microdilution; read-out: MIC E. coli 901C
Summary of the method: as §4

E. coli AG100A = assay: microbe, parasite or virus in culture; type: cell-based; conditions: Escherichia coli, read-out: MIC E. coli AG100A
Summary of the method: as §4

E. coli ATCC 25922 = assay: Broth microdilution MIC, E. coli ATCC 25922; type: cell-based; conditions: Escherichia coli, ATCC25922; E. coli ATCC 25922, broth microdilution; read-out: MIC E. coli 25922
Summary of the method: as §4

K. pneumoniae 848844 = assay: microbe, parasite or virus in culture; type: cell-based, Klebsiella pneumoniae; conditions: Klebsiella pneumoniae; K. pneumoniae 848844 producing SHV-11 and KPC-2; read-out: MIC K. pneumoniae 848844
Summary of the method: as §4

E. coli AG100 = assay: Broth microdilution MIC, E. coli AG100 (wild-type parent); type: cell-based; conditions: Escherichia coli; wild-type parent E. coli AG100, broth microdilution; read-out: MIC E. coli AG100
Summary of the method: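 Starting inoculum of 5×10^5 CFU/mL, from colonies grown 3-5 h in Mueller-Hinton broth with divalent cations, added to two-fold compound dilution series.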

Chain of E. coli PBP3 (P0AD68 whole entry): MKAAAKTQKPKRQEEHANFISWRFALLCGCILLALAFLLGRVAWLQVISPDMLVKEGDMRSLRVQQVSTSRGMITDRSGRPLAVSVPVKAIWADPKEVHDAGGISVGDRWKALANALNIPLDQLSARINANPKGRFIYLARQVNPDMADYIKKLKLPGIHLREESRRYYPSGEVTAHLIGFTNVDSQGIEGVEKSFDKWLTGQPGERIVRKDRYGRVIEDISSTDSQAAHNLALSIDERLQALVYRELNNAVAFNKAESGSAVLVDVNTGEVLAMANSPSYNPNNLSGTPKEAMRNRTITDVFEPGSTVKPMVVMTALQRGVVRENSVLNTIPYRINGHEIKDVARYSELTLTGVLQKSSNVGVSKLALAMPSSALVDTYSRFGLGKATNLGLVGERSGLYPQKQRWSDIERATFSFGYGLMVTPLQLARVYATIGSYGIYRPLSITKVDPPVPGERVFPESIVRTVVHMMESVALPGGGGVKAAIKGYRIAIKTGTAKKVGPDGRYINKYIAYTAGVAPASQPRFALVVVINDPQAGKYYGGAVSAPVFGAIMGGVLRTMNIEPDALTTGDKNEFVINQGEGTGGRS

Row | Structure (SMILES) | EC50 (E. coli PBP3) [µM] | MIC [1] [mg/L] | EC50 (E. coli PBP2) [µM] | MIC (N. gonorrhoeae FA1090) [µg/mL] | MIC [2] [µg/mL] | MIC (N. gonorrhoeae FA19) [µg/mL] | MIC (N. gonorrhoeae WHO F) [µg/mL] | other results
1 | CCN1CCN(C(=O)NC(C(=O)N[C@H]2Cc3cccc(C(=O)O)c3OB2O)c2ccc(OC)cn2)C(=O)C1=O (stereo partly drawn) [Example 81, (3R)-3-(2-(4-ethyl-2,3-dioxopiperazine-1-carboxamido)-2-(5-methoxypyridin-2-yl)acetamido)-2-hydroxy-3,4-dihydro-2H-benzo[e][1,2]oxaborinine-8-carboxylic acid] | 30 to 500 | 128 to 256 (≈ 237 to 475 µM) | 30 to 500 |  |  |  |  | 
2 | CCCN1CCN(C(=O)NC(C(=O)N[C@H]2Cc3cccc(C(=O)O)c3OB2O)c2cnc(N)s2)C(=O)C1=O (stereo partly drawn) [Example 101, (3R)-3-(2-(2-aminothiazol-5-yl)-2-(2,3-dioxo-4-propylpiperazine-1-carboxamido)acetamido)-2-hydroxy-3,4-dihydro-2H-benzo[e][1,2]oxaborinine-8-carboxylic acid] | 30 to 500 | 32 to 64 (≈ 58.8 to 118 µM) | > 500 | < 0.125 | 1 to 2 (≈ 1.84 to 3.67 µM) | 1 to 2 (≈ 1.84 to 3.67 µM) | < 0.125 | 
3 | CCN1CCN(C(=O)NC(C(=O)N[C@H]2Cc3cccc(C(=O)O)c3OB2O)c2ccc(F)cn2)C(=O)C1=O (stereo partly drawn) [Example 114, (3R)-3-(2-(4-ethyl-2,3-dioxopiperazine-1-carboxamido)-2-(5-fluoropyridin-2-yl)acetamido)-2-hydroxy-3,4-dihydro-2H-benzo[e][1,2]oxaborinine-8-carboxylic acid] | 30 to 500 | 128 to 256 (≈ 243 to 486 µM) | > 500 |  |  |  |  | EC50 (E. coli PBP1b): > 100 µM
4 | CCN1CCN(C(=O)N[C@@H](C(=O)N[C@H]2Cc3ccc(F)c(C(=O)O)c3OB2O)c2ccsc2)C(=O)C1=O [Example 138, (R)-3-((R)-2-(4-ethyl-2,3-dioxopiperazine-1-carboxamido)-2-(thiophen-3-yl)acetamido)-7-fluoro-2-hydroxy-3,4-dihydro-2H-benzo[e][1,2]oxaborinine-8-carboxylic acid] | < 30 |  | > 500 |  |  |  |  | MIC (P. aeruginosa PAO1): > 128 µg/mL; MIC (P. aeruginosa ATCC 35151): 0.5 to 1 µg/mL; MIC [3]: 32 to 64 µg/mL; MIC (A. baumannii ATCC 19606): > 128 µg/mL
5 | CCN1CCN(C(=O)NC(C(=O)N[C@H]2Cc3ccc(F)c(C(=O)O)c3OB2O)c2cccs2)C(=O)C1=O (stereo partly drawn) [Example 142, (3R)-3-(2-(4-ethyl-2,3-dioxopiperazine-1-carboxamido)-2-(thiophen-2-yl)acetamido)-7-fluoro-2-hydroxy-3,4-dihydro-2H-benzo[e][1,2]oxaborinine-8-carboxylic acid] | 30 to 500 |  | > 500 | < 0.125 | 0.25 to 0.5 (≈ 0.47 to 0.939 µM) | 1 to 2 (≈ 1.88 to 3.76 µM) | < 0.125 | 
6 | CCN1CCN(C(=O)N[C@@H](C(=O)N[C@H]2Cc3cccc(C(=O)O)c3OB2O)c2ccc(O)c(F)c2)C(=O)C1=O [Example 156, (R)-3-((R)-2-(4-ethyl-2,3-dioxopiperazine-1-carboxamido)-2-(3-fluoro-4-hydroxyphenyl)acetamido)-2-hydroxy-3,4-dihydro-2H-benzo[e][1,2]oxaborinine-8-carboxylic acid] |  |  | > 500 |  |  |  |  | MIC (K. pneumoniae SI-117): 32 to 64 µg/mL; MIC (K. pneumoniae UMM): 32 to 64 µg/mL; MIC (E. coli D22): 2 to 4 µg/mL; MIC (E. coli 901C): < 0.25 µg/mL; MIC (E. coli AG100A): 2 to 4 µg/mL; EC50 (E. coli PBP3; fluorescence polarization competition binding with Bocillin-FL, read-out: E. coli K12 PBP3 Potency): < 30 µM; MIC (E. coli ATCC 25922): 32 to 64 µg/mL; MIC (K. pneumoniae 848844): 32 to 64 µg/mL; MIC (E. coli AG100): 32 to 64 µg/mL
